The numbers were not newly measured in patent US12637513B2, “Method of treating cancer by administering an inhibitor of erythropoietin receptor activity comprising either erythropoietin receptor or erythropoietin protein” (ImmunEdge, Inc., priority 2022, dated 2026), which cites them from elsewhere.

Each structure is given as a SMILES string.

The target of this data set is PHD2 (Homo sapiens, UniProt Q9GZT9). The note with it: target PHD2; cited from earlier work.
PHD2, sequence (Q9GZT9 whole entry): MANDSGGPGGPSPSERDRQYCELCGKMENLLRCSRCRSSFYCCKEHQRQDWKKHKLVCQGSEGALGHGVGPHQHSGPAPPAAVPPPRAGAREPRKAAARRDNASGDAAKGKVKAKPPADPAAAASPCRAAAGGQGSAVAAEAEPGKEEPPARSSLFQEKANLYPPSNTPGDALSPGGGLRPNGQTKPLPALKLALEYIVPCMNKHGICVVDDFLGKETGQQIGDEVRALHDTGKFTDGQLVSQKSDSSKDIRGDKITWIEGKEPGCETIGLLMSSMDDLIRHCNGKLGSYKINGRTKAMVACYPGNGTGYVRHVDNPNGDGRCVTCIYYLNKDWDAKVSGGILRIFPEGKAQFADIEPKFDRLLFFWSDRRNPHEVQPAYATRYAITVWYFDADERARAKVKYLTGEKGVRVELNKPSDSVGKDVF

The term IC50 denotes the point on the concentration scale where inhibition reaches its midpoint. Turning to `O=C(O)CNC(=O)c1c(O)cc(CCc2ccccc2)n2ncnc12` [Enarodustat], the IC50 was 0.22 to 5.7 µM.
